Assay results reported in US20060135403A1, “Therapeutic formulations for the treatment of beta-amyloid related diseases” (priority 2002, published 2006).
Where a name gives a salt, the structure may show the parent alone. Read-outs that look alike come from different tables or passages of the source.

How the values were obtained:
Aβ1-40 = target: T1, Aβ1-40 (Homo sapiens, UniProt P05067); assay: Mass spectroscopy (MS) binding assay; set-up: key: “+++” indicates strong binding; “++” indicates moderate binding; “+” indicates weak binding; “−” indicates no detectable binding; conditions: 200 μM test compound, 20 μM solubilized Aβ40, 20% ethanol, pH 7.4
T1 construct: 20 μM of solubilized Aβ40
Description: Test compounds were purchased from commercial sources or synthesized and screened by mass spectroscopy (“MS”) assays. The MS assay gives data on the ability of compounds to bind to an amyloid.
In the mass spectroscopy (“MS”) assay, samples were prepared as aqueous solutions containing 20% ethanol, 200 μM of a test compound and 20 μM of solubilized Aβ40. The pH value of each sample was adjusted to 7.4 (±0.2) by addition of 0.1% aqueous sodium hydroxide. The solutions were then analyzed by electrospray ionization mass spectroscopy using a Waters ZQ 4000 mass spectrometer. Samples were introduced by direct infusion at a flow-rate of […] within 2 hours after sample preparation. The source temperature was kept at 70° C. and the cone voltage was 20 V for all the analysis. Data were processed using Masslynx 3.5 software. The MS assay gives data on the ability of compounds to bind to Aβ, whereas the ThT, EM and CD assays give data on inhibition of fibrillogenesis. “+++” indicates strong binding; “++” indicates moderate binding; “+” indicates weak binding; “−” indicates no detectable binding; and entries left blank were not determined.

Aβ [1] = conditions: PDAPP, cited from earlier work
Aβ [2] = conditions: cited from earlier work
Aβ [3] = conditions: TgCRND8, IP; cited from earlier work
Aβ [4] = target: T2, Aβ (Homo sapiens, UniProt P05067); conditions: TgAPPswe, IP; cited from earlier work
T2 construct: the amyloid-β peptide (Aβ), a 39-43 amino acid protein that is produced through cleavage of the β-amyloid precursor protein (APP); host or cells: brains of transgenic mice (PDAPP, Tg2576, Tg2576+PS1, TgCRND8, TgAPPswe)

Aβ [5] = conditions: cited from earlier work; remark: listed apart in the source
Target sequence in this assay (P05067 672-711 limits assumed): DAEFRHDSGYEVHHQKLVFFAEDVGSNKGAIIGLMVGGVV

T1 sequence (P05067 672-711 limits assumed): as above

Compound	MS Binding Aβ1-40 (Aβ1-40)	other results
O=C(NCCCS(=O)(=O)[O-])OCc1ccccc1.[Na+] [AE, N-benzyloxycarbonyl-3-amino-1-propanesulfonic acid sodium salt monohydrate]	+	
CC(C)(C)NCCCS(=O)(=O)O [BX, 3-(t-butyl)amino-1-propanesulfonic acid]	+++	
O=S(=O)(O)CCCNC1C2CC3CC(C2)CC1C3 (centres unmarked) [BZ, 3-(2-adamantyl)amino-1-propanesulfonic acid]	+++	
COc1ccc(CNCCCS(=O)(=O)O)cc1OC [AX, 3-(3,4-dimethoxybenzylamino)-1-propanesulfonic acid]	+++	
O=C(NCCCS(=O)(=O)[O-])NCc1ccccc1.[Na+] [AH, 3-{[(benzylamino)carbonyl]amino}-1-propanesulfonic acid, sodium salt]	+	
fAβ42: fibrillar Aβ42 used for active immunization		Change in Cerebral Levels: Amyloid Burden (Aβ [1]; IP): −95%; Change in Cerebral Levels: Aβ, total Aβ levels (Aβ [1]; IP): Total: −80%; Change in Cerebral Levels: Aβ (Aβ [2]; Tg2576, IP, Aβ species not specified): −70%; Change in Cerebral Levels: Amyloid Burden (Aβ [2]; Tg2576, IP): −85%; Change in Cerebral Levels: Amyloid Burden (Aβ [2]; Tg2576, SC): −80%; Change in Cerebral Levels: Amyloid Burden (Aβ [3]): −50%; Change in Cerebral Levels: Aβ, levels of Aβ40 (Aβ [4]): 40: +100%;; Change in Cerebral Levels: Aβ, levels of Aβ42 (Aβ [4]): 42: 0%
O=S(=O)(O)CCCNC1CCCc2ccccc21 (centres unmarked) [BU, 3-(1,2,3,4-tetrahydro-1-naphthylamino)-1-propanesulfonic acid]	+++	
NCCCCS(=O)(=O)O [CB, 4-amino-1-butanesulfonic acid]	++	
COc1ccc(CNCCCS(=O)(=O)O)c(OC)c1 [BB, 3-(2,4-dimethoxybenzylamino)-1-propanesulfonic acid]	+++	
O=C(NCC(O)CS(=O)(=O)[O-])OCc1ccccc1.[Na+] (centres unmarked) [AC, N-benzyloxycarbonyl-3-amino-2-hydroxy-1-propanesulfonic acid sodium salt monohydrate]	+	
O=C(NCCCCS(=O)(=O)[O-])OCc1ccccc1.[Na+] [AD, N-benzyloxycarbonyl-4-amino-1-butanesulfonic acid sodium salt monohydrate]	+	
C[n+]1cccc(C(=O)NCCCS(=O)(=O)[O-])c1 [AN, 3-((N-methylnicotlnoyl)amino)-1-propanesulfonic acid, inner salt]	−	
COc1cccc(CNCCCS(=O)(=O)O)c1OC [AZ, 3-(2,3-dimethoxybenzylamino)-1-propanesulfonic acid]	++	
O=S(=O)(O)CCCNC1CC2CCC1C2 (centres unmarked) [BY, 3-(2-norbornyl)amino-1-propanesulfonic acid]	+++	
CCNCCCS(=O)(=O)O [BV, 3-(ethylamino)-1-propanesulfonic acid]	+++	
O=S(=O)(O)CCCNCCc1c[nH]c2ccccc12 [BT, 3-{[2-(3-indolyl)ethyl]-amino}-1-propanesulfonic acid]	+++	
Cholyl-LVFFA-OH		anti-fibrillogenic activity (Aβ [5]): can act as an anti-fibrillogenic agent

Compound	MS Binding Aβ1-40 (Aβ1-40)	other results
O=S(=O)(O)CCCN1CC=C(CCCc2ccccc2)CC1 [D, 4-(3-phenylpropyl)-1-sulfopropyl-2,3,6-tetrahydropyridine]	+	
O=S(=O)(O)CCCNCc1ccc2c(c1)OCO2 [AW, 3-[((1,3-benzodioxol-5-yl)methyl)amino]-1-propanesulfonic acid]	++	
COc1cc(CNCCCS(=O)(=O)O)cc(OC)c1 [BA, 3-(3,5-dimethoxybenzylamino)-1-propanesulfonic acid]	+++	
CCCC(CO)NCCCS(=O)(=O)O (racemic) [CA, 3-[(dl)-1-hydroxy-2-pentyl]amino-1-propanesulfonic acid]	+++	
CC(C)Cc1ccc(C(C)C(=O)NCCCS(=O)(=O)[O-])cc1.[Na+] (centres unmarked) [AL, 3-{[2-(4-isobutylphenyl)propanoyl]amino}-1-propanesulfonic acid, sodium salt]	++	
Aβ40: Aβ40 peptide given orally or nasally as immunogen (Weiner 2000)		Change in Cerebral Levels: Amyloid Burden (Aβ [1]; nasal): −60%; Change in Cerebral Levels: Aβ, total Aβ levels (Aβ [1]; nasal): Total: −50%; Change in Cerebral Levels: Amyloid Burden (Aβ [1]; oral): 0%; Change in Cerebral Levels: Aβ, total Aβ levels (Aβ [1]; oral): Total: 0%
O=S(=O)([O-])CCCC[n+]1ccc(C2CC=CCC2)cc1 (centres unmarked) [T, 4-(4-cyclohex-3-enylpyridyl) butanesulfonic acid, inner salt]	+	
O=S(=O)(O)CCCNC12CC3CC(CC(C3)C1)C2 [BW, 3-(1-adamantyl)amino-1-propanesulfonic acid]	+++	
NCCNS(=O)(=O)[O-].[Na+] [BI]	+	
N=C(N)SCCCS(=O)(=O)O [CP, 3-(amidinothio)-1-propanesulfonic acid]	+	
O=S(=O)([O-])CCCNC(=S)NCc1ccccc1.[Na+] [AM, 3-{[(benzylamino)carbonothioyl]amino}-1-propanesulfonic acid sodium salt]	+	
O=C(NCCCS(=O)(=O)O)NC(c1ccccc1)c1ccccc1 [AF, 3-{[(benzhydrylamino)carbonyl]amino}-1-propanesulfanic acid]	+	
K6Aβ1-30: Aβ peptide immunogen of Sigurdsson 2001		Change in Cerebral Levels: Amyloid Burden (Aβ [2]; Tg2576, SC): −85%; Change in Cerebral Levels: Aβ, total Aβ levels (Aβ [2]; Tg2576, SC): Total: −55%
COc1cc(CNCCCS(=O)(=O)O)cc(OC)c1OC [AY, 3-(3,4,5-trimethoxybenzylamino)-1-propanesulfonic acid]	++	
O=C(Cc1ccccc1)NCCCS(=O)(=O)[O-].[Na+] [AG, 3-[(phenylacetyl)amino]-1-propanesulfonic acid, sodium salt]	+	
O=S(=O)(O)CCCNCc1ccc(O)c(O)c1 [BC, 3-(3,4-dihydroxybenzylamino)-1-propanesulfonic acid]	+	
